# Reference: patent US11795163B2, “Compound for inhibiting nicotinamide phosphoribosyltransferase and composition containing same” (CHECKMATE THERAPEUTICS INC., priority 2016, dated 2023)
# pIC50: −log10 of the molar value.
# Columns and labels:
# [1] = test system: H322; test: Therapeutic effect of cancer cell line, IC50; type: cell-based; conditions: NCI-H322; H322, NAPRT expression negative
# [2] = molecular target: hERG K+ channel (Homo sapiens, UniProt Q12809); test: hERG K+ channel activity evaluation, patch clamp
# Sequence of hERG K+ channel (Q12809 whole entry): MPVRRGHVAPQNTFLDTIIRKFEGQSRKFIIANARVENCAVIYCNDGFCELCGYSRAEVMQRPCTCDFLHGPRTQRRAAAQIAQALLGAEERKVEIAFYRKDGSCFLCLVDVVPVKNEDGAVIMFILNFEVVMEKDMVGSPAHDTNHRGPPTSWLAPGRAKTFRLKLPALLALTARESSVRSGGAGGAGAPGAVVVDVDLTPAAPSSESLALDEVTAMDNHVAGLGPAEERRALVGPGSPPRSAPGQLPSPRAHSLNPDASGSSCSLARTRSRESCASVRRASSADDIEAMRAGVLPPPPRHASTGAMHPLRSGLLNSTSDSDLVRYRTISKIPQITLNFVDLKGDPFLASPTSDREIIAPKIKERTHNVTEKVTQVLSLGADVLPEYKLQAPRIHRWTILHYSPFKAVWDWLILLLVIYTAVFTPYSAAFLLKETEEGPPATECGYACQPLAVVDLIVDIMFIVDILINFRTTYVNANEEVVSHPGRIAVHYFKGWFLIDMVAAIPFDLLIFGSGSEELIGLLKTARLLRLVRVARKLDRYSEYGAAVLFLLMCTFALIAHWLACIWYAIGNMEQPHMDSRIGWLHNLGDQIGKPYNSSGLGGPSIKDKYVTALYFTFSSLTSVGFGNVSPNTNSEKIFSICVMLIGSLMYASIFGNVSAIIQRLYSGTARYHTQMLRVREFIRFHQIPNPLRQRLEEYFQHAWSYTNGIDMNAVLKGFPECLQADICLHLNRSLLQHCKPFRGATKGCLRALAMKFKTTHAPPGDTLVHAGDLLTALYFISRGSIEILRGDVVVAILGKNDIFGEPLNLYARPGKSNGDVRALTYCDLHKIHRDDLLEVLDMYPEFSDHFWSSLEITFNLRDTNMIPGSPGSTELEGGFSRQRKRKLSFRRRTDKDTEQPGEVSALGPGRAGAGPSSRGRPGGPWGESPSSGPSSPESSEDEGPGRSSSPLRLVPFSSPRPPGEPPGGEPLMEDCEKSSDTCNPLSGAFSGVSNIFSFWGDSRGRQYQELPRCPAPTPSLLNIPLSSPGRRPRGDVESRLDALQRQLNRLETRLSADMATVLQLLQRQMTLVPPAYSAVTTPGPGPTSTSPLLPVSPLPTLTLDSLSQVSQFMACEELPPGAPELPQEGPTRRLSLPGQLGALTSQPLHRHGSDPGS
# Procedure: In addition, as the hERG K+ channel activity evaluation, the potential risk of log QT prolongation according to the dose used was evaluated by measuring the current inhibition according to the drug using a patch clamp technique and evaluating the IC50.
# [3] = test system: H1115; test: Therapeutic effect of cancer cell line, IC50; type: cell-based; conditions: H1115, NAPRT expression negative
# [4] = Microsome stability evaluation; type: in vitro ADME, mouse; conditions: after 30 minutes, 1 μM compound, 0.3 mg/ml microsomal protein, 1 mM NADPH
# Procedure: (§1) Metabolic stability was assessed using human liver microsomes and mouse liver microsomes. Specifically, pooled male mouse liver microsomes (in-house preparation per SOP), pooled human liver microsomes (XENOTECH; […] The reaction was stopped by addition of acetonitrile ([…]) containing the same volume of internal standard. The precipitated proteins were removed by centrifugation and the supernatant was analyzed by LC/MS-MS method. […] Residual % parent compound=(peak area at time x/peak area at TO)×100.
# [5] = Microsome stability evaluation; type: in vitro ADME, human; conditions: after 30 minutes, 1 μM compound, 0.3 mg/ml microsomal protein, 1 mM NADPH
# Procedure: as §1
# [6] = test system: H661; test: Therapeutic effect of cancer cell line, IC50; type: cell-based; conditions: Homo sapiens, NCI-H661; H661, NAPRT expression negative
# [7] = molecular target: hERG channel (Homo sapiens, UniProt Q12809); test: hERG screening by fluorescence polarization with red fluorescent hERG channel ligand tracer; type: binding; conditions: probe high affinity red fluorescent hERG channel ligand tracer, mean±standard deviation, read-out: % inhibition capacity
# Sequence of hERG channel (Q12809 whole entry): as above
# [8] = test system: H1993; test: Therapeutic effect of cancer cell line, IC50; type: cell-based; conditions: Homo sapiens, NCI-H1993; H1993, NAPRT expression positive
# [9] = test system: liver cell (THLE-2); test: Toxicity assessment in normal cell line, cell viability; type: cell-based; conditions: for toxicity: THLE-2, very high concentrations of 50 μM
# [10] = test system: HBEC30; test: Therapeutic effect of cancer cell line, IC50; type: cell-based; conditions: HBEC30, NAPRT expression positive
# [11] = test system: H1299; test: Therapeutic effect of cancer cell line, IC50; type: cell-based; conditions: Homo sapiens, NCI-H1299; H1299, NAPRT expression positive
# [12] = test system: H1975; test: Therapeutic effect of cancer cell line, IC50; type: cell-based; conditions: Homo sapiens, NCI-H1975; H1975, NAPRT expression positive
# [13] = test system: liver cell (THLE-3); test: Toxicity evaluation in normal cell line, cell viability; type: cell-based; conditions: for toxicity: THLE-3, very high concentrations of 50 μM
# [14] = test system: H2030; test: Therapeutic effect of cancer cell line, IC50; type: cell-based; conditions: Homo sapiens, NCI-H2030; H2030, NAPRT expression positive
# [15] = test system: H2122; test: Therapeutic effect of cancer cell line, IC50; type: cell-based; conditions: Homo sapiens, NCI-H2122; H2122, NAPRT expression positive
# [16] = test system: H322 cell line; test: Toxic mechanism in cancer cell lines: intracellular NAD, ATP and total protein; type: cell-based; conditions: H322, 2.5 μM
# Procedure: To investigate the direct effect of the compound according to the present invention on the catalytic activity of NamPT enzyme, after treating H322 cell line with 2.5 μM of the compound of the Synthesis Example 4, the intracellular NAD, ATP and total protein was measured, with the results depicted in FIG. 20.
structure (smiles),measurement,setting,value
Cn1/c(=N/NC(=O)/C=C/c2cccnc2)sc2ccccc21 [B1983],pIC50,[1],6.52
O=C(NCc1ccc(N2CCCCC2)cc1)c1cccnc1 [B1978],pIC50,[1],5.92
O=C(NCCNC(=O)c1nc2ccccc2s1)c1cccnc1 [B1873],pIC50,[1],5.30
Cc1ccc(-c2nc3cc(NC(=O)c4cccnc4)ccc3o2)cc1C [B1716],pIC50,[1],4.90
"O=C(NCc1ccc(-c2nc3ccc(Cl)cc3o2)cc1)c1cccnc1 [A4266, N-(4-(6-chlorobenzo[d]oxazol-2-yl)benzyl)nicotinamide]",pIC50,[2],< 4.00
same,pIC50,[3],7.52
same,Mouse(%) parent compound remaining,[4],89.3 ± 3.12%
same,Human(%) parent compound remaining,[5],>99%
same,pIC50,[6],7.00
same,inhibition at 10 µM,[7],< 1%
same,pIC50,[1],7.52
O=C(NCc1ccc(-c2nc3ncccc3o2)cc1)c1cccnc1 [B1472],pIC50,[1],6.52
CC(C)c1ccc2oc(-c3ccc(NC(=O)c4cccnc4)cc3)nc2c1 [B1479],pIC50,[1],5.30
Cc1ccc(-c2noc(C(=O)NCCNC(=O)c3cccnc3)n2)cc1 [B1857],pIC50,[1],5.00
O=C(NCc1ccc(S(=O)(=O)N2CCOCC2)cc1)c1cccnc1 [B1977],pIC50,[1],5.20
COc1ccc(-c2noc(C(=O)NCCNC(=O)c3cccnc3)n2)cc1 [B1866],pIC50,[1],5.00
CCc1ccc2nc(-c3ccc(CNC(=O)c4cccnc4)cc3)oc2c1 [A4302],pIC50,[3],> 6.52
same,pIC50,[6],7.00
same,pIC50,[1],7.00
CC(C)OC(=O)c1ccc(NC(=O)c2cccnc2)cc1 [B1416],pIC50,[1],> 5.81
Cc1nnc2sc(-c3ccc(CNC(=O)c4cccnc4)cc3)nn12 [B1468],pIC50,[8],< 4.00
same,pIC50,[3],5.50
same,toxicity,[9],little toxicity
same,pIC50,[6],< 6.00
same,pIC50,[10],< 4.00
same,pIC50,[11],< 4.00
same,pIC50,[12],< 4.00
same,toxicity,[13],little toxicity
same,pIC50,[14],< 4.00
same,pIC50,[1],> 7.62
same,pIC50,[15],< 4.00
"O=C1CC2(CCCC2)CC(=O)N1CCCCN1CCN(c2ncccn2)CC1 [Buspirone, reference compound]",Mouse(%) parent compound remaining,[4],3.189 ± 1.078%
same,Human(%) parent compound remaining,[5],0.101 ± 0.028%
O=C(/C=C/c1cccnc1)NCCCN1CCc2ccccc21 [B1975],pIC50,[1],5.92
O=C(NCc1ccc(-c2nc3ccc([N+](=O)[O-])cc3o2)cc1)c1cccnc1 [A4261],pIC50,[3],> 7.00
same,pIC50,[6],> 6.52
same,pIC50,[1],7.52
"O=C(NCc1ccc(-c2nc3cnccc3o2)cc1)c1cccnc1 [B1471, N-(4-(oxazolo[4,5-c]pyridin-2-yl)benzyl)nicotinamide]",pIC50,[8],< 4.00
same,pIC50,[3],< 6.00
same,pIC50,[6],6.15
same,pIC50,[10],< 4.00
same,pIC50,[11],4.00
same,pIC50,[12],< 4.00
same,pIC50,[14],< 4.00
same,pIC50,[1],> 7.62
same,pIC50,[15],< 4.00
same,amount of ATP,[16],remarkably decreased
same,amount of NAD,[16],remarkably decreased
same,total amount of protein compared to the negative control,[16],decrease
CCc1nnc2sc(-c3ccc(NC(=O)c4cccnc4)cc3)nn12 [B1485],pIC50,[1],7.52
O=C(NCc1ccc(-c2nc3cc(-c4ccccc4)ccc3o2)cc1)c1cccnc1 [A4262],pIC50,[3],> 7.00
same,pIC50,[6],4.52
same,pIC50,[1],7.52
O=C(NCc1ccc(S(=O)(=O)N2CCCCC2)cc1)c1cccnc1 [B1981],pIC50,[1],5.51
CC(C)c1cc(C(F)(F)F)n2nc([C@H]3CCN(C(=O)/C=C/c4cccnc4)C3)cc2n1 [B1964],pIC50,[1],6.70
O=C(Nc1ccc2c(c1)CN(C(=O)/C=C/c1cccnc1)CC2)c1ccncc1 [B1963],pIC50,[1],6.41
O=C(NCCNC(=O)c1nc(-c2ccc(Cl)cc2)no1)c1cccnc1 [B1856],pIC50,[1],4.90
Cc1ccc2oc(-c3ccc(CNC(=O)c4cccnc4)cc3)nc2c1 [A4275],pIC50,[3],> 6.52
same,pIC50,[6],> 6.52
same,pIC50,[1],7.52
CCc1nnc2sc(-c3ccc(CNC(=O)c4cccnc4)cc3)nn12 [B1423],pIC50,[8],< 4.00
same,pIC50,[3],6.00
same,pIC50,[6],< 6.00
same,pIC50,[10],< 4.00
same,pIC50,[11],< 4.00
same,pIC50,[12],< 4.00
same,pIC50,[14],< 4.00
same,pIC50,[1],6.22
same,pIC50,[15],< 4.00
COc1ccc2oc(-c3ccc(CNC(=O)c4cccnc4)cc3)nc2c1 [B1474],pIC50,[1],7.30
COC(=O)c1ccc(CCNC(=O)c2ccc3nccn3c2)cc1 [B1531],pIC50,[1],5.20
"CCc1ccc2oc(-c3ccc(CNC(=O)c4cccnc4)cc3)nc2c1 [Drug3, N-(4-(5-ethylbenzo[d]oxazol-2-yl)benzyl)nicotinamide]",pIC50,[3],> 5.51
same,pIC50,[6],> 6.00
same,pIC50,[1],6.00
O=C(Nc1ccc(C(=O)c2cc3ccccc3o2)cc1)c1cccnc1 [B1484],pIC50,[1],7.30
O=C(NCc1ccc(-c2nc3ccccc3o2)cc1)c1cccnc1 [B1470],pIC50,[1],7.22
CCN(CC)Cc1ccc(CNC(=O)c2cccnc2)cc1 [B1982],pIC50,[1],4.92
"O=C(NCc1ccc(S(=O)(=O)c2cc(F)cc(F)c2)cc1)c1ccc2nccn2c1 [GNE617, N-(4-((3,5-difluorophenyl)sulfonyl)benzyl)imidazo[1,2-a]pyridine-6-carboxamide, reference compound]",pIC50,"[9]; Homo sapiens, THLE-2, FIG. 25",~7.30
same,pIC50,"[13]; THLE3, THLE-3, FIG. 26",~7.30
Cc1nccn1-c1ccc(CNC(=O)c2cccnc2)cc1 [B1967],pIC50,[1],4.90
O=C(NCc1ccc(-c2nc3ccccc3s2)cc1)c1cccnc1 [B1469],pIC50,[1],7.22
O=C(NCCNC(=O)c1ccc2ccccc2n1)c1cccnc1 [B1872],pIC50,[1],5.00
Cc1ccc2nc(-c3ccc(CNC(=O)c4ccccc4)cc3)oc2c1 [A4303],pIC50,[3],5.00
same,pIC50,[6],5.00
same,pIC50,[1],5.00
COC(=O)c1ccc(NC(=O)c2cccnc2)cc1 [B1380],pIC50,[8],< 4.90
same,pIC50,[6],5.60
same,pIC50,[10],< 4.90
same,pIC50,[1],5.20
same,pIC50,[15],< 4.90
O=C(/C=C/c1cccnc1)N1CCN(Cc2csc(-c3ccco3)n2)CC1 [B1976],pIC50,[1],5.00
O=C(Nc1ccc(-c2nn3cnnc3s2)cc1)c1cccnc1 [B1523],pIC50,[1],5.81
O=C(NCCNC(=O)c1nc(-c2cccs2)no1)c1cccnc1 [B1863],pIC50,[1],4.90
O=C(NCc1ccc(OCc2ccccn2)cc1)c1cccnc1 [B1979],pIC50,[1],6.11
O=C(Nc1ccc(C(=O)OC2CCCCC2)cc1)c1cccnc1 [B1477],pIC50,[8],> 4.00
same,pIC50,[3],< 6.00
same,toxicity,[9],little toxicity
same,pIC50,[6],< 6.00
same,pIC50,[10],< 4.00
same,pIC50,[11],> 4.00
same,pIC50,[12],< 4.00
same,toxicity,[13],little toxicity
same,pIC50,[14],> 4.00
same,pIC50,[1],> 7.62
same,pIC50,[15],4.50
CC(C)(C)c1ccc2nc(-c3ccc(CNC(=O)c4cccnc4)cc3)oc2c1 [A4263],pIC50,[3],> 6.52
same,pIC50,[6],6.00
same,pIC50,[1],> 7.52
